These results are taken from PubChem BioAssay AID256 (DTP/NCI, 2004).

The experiment deals with CD2F1 mice, L1210 leukemia ip, survival T/C. Nature of the experiment: NCI In Vivo Anticancer Drug Screen. Data for tumor model L1210 Leukemia (intraperitoneal) in CD2F1 (CDF1) mice. Conditions: higher = longer survival. The method in brief: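 Compound-dosed mice with transplantable tumor versus matched vehicle controls; endpoint ratio T/C reported.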
[1] abbreviates: endpoint: mean survival time, dose: 100.0 mg/kg/injection, schedule: Q04DX003 (ip), vehicle: saline with Tween-80.
Where [2] appears, read: endpoint: mean survival time, dose: 200.0 mg/kg/injection, schedule: Q04DX003 (ip), vehicle: saline with Tween-80.
[3] abbreviates: endpoint: mean survival time, dose: 400.0 mg/kg/injection, schedule: Q04DX003 (ip), vehicle: saline with Tween-80.
Setting [4] is: endpoint: mean survival time, dose: 100.0 mg/kg/injection, schedule: Q01DX009 (ip), vehicle: saline with Tween-80.
Setting [5] is: endpoint: mean survival time, dose: 200.0 mg/kg/injection, schedule: Q01DX009 (ip), vehicle: saline with Tween-80.
[6] abbreviates: endpoint: mean survival time, dose: 400.0 mg/kg/injection, schedule: Q01DX009 (ip), vehicle: saline with Tween-80.
The mark [7] stands for this setting: endpoint: mean survival time, dose: 25.0 mg/kg/injection, schedule: Q04DX003 (ip), vehicle: saline with Tween-80.
[8] abbreviates: endpoint: mean survival time, dose: 100.0 mg/kg/injection, schedule: Q04DX002 (ip), vehicle: saline with Tween-80.
[9] abbreviates: endpoint: mean survival time, dose: 200.0 mg/kg/injection, schedule: Q04DX002 (ip), vehicle: saline with Tween-80.
[10] abbreviates: endpoint: mean survival time, dose: 400.0 mg/kg/injection, schedule: Q04DX002 (ip), vehicle: saline with Tween-80.
[11] abbreviates: endpoint: mean survival time, dose: 25.0 mg/kg/injection, schedule: Q01DX009 (ip), vehicle: water.
[12] abbreviates: endpoint: mean survival time, dose: 50.0 mg/kg/injection, schedule: Q04DX003 (ip), vehicle: saline with Tween-80.
The mark [13] stands for this setting: endpoint: mean survival time, dose: 100.0 mg/kg/injection, schedule: Q01DX009 (ip), vehicle: other.

“And” between values parts separate entries of the source, which are not always exact repeats. Equal values may be shown once. Inconclusive results and toxic doses are left out.

In the case of `O=C(O)CNCC(C(=O)O)C(=O)O`, the T/C runs as follows: (endpoint: mean survival time, dose: 25.0 mg/kg/injection, schedule: Q04DX002 (ip), vehicle: saline) 96 % of control; (endpoint: mean survival time, dose: 50.0 mg/kg/injection, schedule: Q04DX002 (ip), vehicle: saline) 90 % of control; (endpoint: mean survival time, dose: 100.0 mg/kg/injection, schedule: Q04DX002 (ip), vehicle: saline) 90 % of control.

Regarding `Cc1ccc2[nH]c(-c3ccccc3)c(-c3ccccc3)c2c1`, the T/C was 102 % of control under setting [1], 94 % of control under setting [2] and 96 % of control under setting [3].

Take `CCOC(=O)CCC1(C(=O)OC)C(=O)CCCCC/C=C/1C(=O)OC` (configuration not stated): the T/C is 101 % of control under setting [4], 93 % of control under setting [5] and 96 % of control under setting [6].

Regarding `CC([NH-])CC(C)[NH-].[Cl][Pt+2][Cl]` (configuration not stated), the T/C is 122 % of control (endpoint: mean survival time, dose: 3.12 mg/kg/injection, schedule: Q04DX003 (ip), vehicle: saline with Tween-80); 162 % of control and 168 % of control (endpoint: mean survival time, dose: 6.25 mg/kg/injection, schedule: Q04DX003 (ip), vehicle: saline with Tween-80); 92 % of control under setting [7].

On to `C/C(=C/C(=O)O)C(=O)O.[NH-]C1CCCCC1[NH-].[Pt+2]`, for which the T/C runs as follows: (endpoint: median survival time, dose: 3.12 mg/kg/injection, schedule: Q04DX003 (ip), vehicle: saline) 100 % of control and 107 % of control; (endpoint: median survival time, dose: 6.25 mg/kg/injection, schedule: Q04DX003 (ip), vehicle: saline) 96 % of control and 109 % of control; (endpoint: median survival time, dose: 12.5 mg/kg/injection, schedule: Q04DX003 (ip), vehicle: saline) 108 % of control; (endpoint: median survival time, dose: 25.0 mg/kg/injection, schedule: Q04DX003 (ip), vehicle: saline) 116 % of control and 111 % of control; (endpoint: median survival time, dose: 50.0 mg/kg/injection, schedule: Q04DX003 (ip), vehicle: saline) 116 % of control and 120 % of control; (endpoint: median survival time, dose: 200.0 mg/kg/injection, schedule: Q04DX003 (ip), vehicle: saline) 153 % of control and 185 % of control.

As to `O=C(NCC1CCCCO1)Nc1ccc(Cl)cc1` (configuration not stated), the T/C is 110 % of control under setting [8], 102 % of control under setting [9] and 94 % of control under setting [10].

In the case of `CCOC(=O)C(C(=O)COC)C(=O)OCC`, the T/C under setting [11] was 102 % of control; the T/C (endpoint: mean survival time, dose: 50.0 mg/kg/injection, schedule: Q01DX009 (ip), vehicle: water) is 97 % of control; the T/C (endpoint: mean survival time, dose: 100.0 mg/kg/injection, schedule: Q01DX009 (ip), vehicle: water) was 97 % of control; the T/C (endpoint: mean survival time, dose: 200.0 mg/kg/injection, schedule: Q01DX009 (ip), vehicle: water) is 94 % of control.

On to `C[Si](C)(C)Nc1ncnc2c1ncn2[Si](C)(C)C`, for which the T/C is 94 % of control under setting [4]; 103 % of control under setting [1]; 105 % of control under setting [5]; 103 % of control under setting [2]; 106 % of control under setting [6]; 101 % of control under setting [3].

`CC(=O)OC1C(O)C(OC(=O)c2ccccc2)C(OC(C)=O)C(OC(C)=O)C1OC(C)=O` (configuration not stated): the T/C is, setting by setting: (endpoint: mean survival time, dose: 200.0 mg/kg/injection, schedule: Q01DX009 (ip), vehicle: Klucel (hydroxypropylcellulose) (HPC)) 91 % of control; (endpoint: mean survival time, dose: 400.0 mg/kg/injection, schedule: Q01DX009 (ip), vehicle: Klucel (hydroxypropylcellulose) (HPC)) 88 % of control.

For `Cc1ccc(C)c(C(C)NC2=NCCO2)c1` (configuration not stated), the T/C runs as follows: (endpoint: mean survival time, dose: 12.5 mg/kg/injection, schedule: Q04DX003 (ip), vehicle: saline with Tween-80) 94 % of control; under setting [7], 93 % of control; under setting [12], 86 % of control and 92 % of control; under setting [1], 91 % of control.

For the compound `O=C(CNC1=NCCN1)Nc1ccc(NC(=O)c2ccc(C(=O)Nc3ccc(NC(=O)CNC4=NCCN4)cc3)cc2)cc1`, the T/C is, setting by setting: (endpoint: mean survival time, dose: 12.0 mg/kg/injection, schedule: Q01DX Z (ip), vehicle: carboxymethylcellulose (CMC)) 102 % of control; (endpoint: mean survival time, dose: 14.0 mg/kg/injection, schedule: Q01DX Z (ip), vehicle: carboxymethylcellulose (CMC)) 106 % of control; (endpoint: mean survival time, dose: 16.0 mg/kg/injection, schedule: Q01DX Z (ip), vehicle: carboxymethylcellulose (CMC)) 102 % of control; (endpoint: mean survival time, dose: 18.0 mg/kg/injection, schedule: Q01DX Z (ip), vehicle: carboxymethylcellulose (CMC)) 106 % of control.

For `CCOC(=O)Nc1cc(F)c(F)cc1F`, the T/C runs as follows: under setting [4], 98 % of control; under setting [5], 98 % of control.

Turning to `O=C(O)C1(C(=O)O)CCC1.[NH2-].[NH2-].[Pt+2]`, the T/C runs as follows: (endpoint: mean survival time, dose: 3.12 mg/kg/injection, schedule: Q01DX009 (ip), vehicle: dextrose) 110 % of control; (endpoint: mean survival time, dose: 6.25 mg/kg/injection, schedule: Q01DX009 (ip), vehicle: dextrose) 118 % of control; (endpoint: mean survival time, dose: 6.25 mg/kg/injection, schedule: Q01DX009 (ip), vehicle: other) 107 % of control; (endpoint: mean survival time, dose: 12.5 mg/kg/injection, schedule: Q01DX009 (ip), vehicle: dextrose) 110 % of control; (endpoint: mean survival time, dose: 12.5 mg/kg/injection, schedule: Q01DX009 (ip), vehicle: saline with Tween-80) 108 % of control; (endpoint: mean survival time, dose: 12.5 mg/kg/injection, schedule: Q04DX003 (ip), vehicle: water) 109 % of control. Besides, the T/C (endpoint: mean survival time, dose: 25.0 mg/kg/injection, schedule: Q01DX009 (ip), vehicle: saline with Tween-80) is 117 % of control; the T/C under setting [11] was 152 % of control; the T/C (endpoint: mean survival time, dose: 25.0 mg/kg/injection, schedule: Q04DX003 (ip), vehicle: water) was 112 % of control; the T/C (endpoint: mean survival time, dose: 50.0 mg/kg/injection, schedule: Q01DX009 (ip), vehicle: dextrose) is 113 % of control; the T/C under setting [13] is 90 % of control; the T/C under setting [4] was 96 % of control. Further, the T/C is, setting by setting: (endpoint: mean survival time, dose: 100.0 mg/kg/injection, schedule: Q04DX003 (ip), vehicle: water) 105 % of control; (endpoint: median survival time, dose: 60.0 mg/kg/injection, schedule: Q01DX009 (ip), vehicle: clinical formulation) 109 % of control; (endpoint: median survival time, dose: 90.0 mg/kg/injection, schedule: Q01DX009 (ip), vehicle: dextrose) 124 % of control.

In the case of `COB(C1CCCCC1)C1CCCCC1`, the T/C under setting [13] was 91 % of control and the T/C (endpoint: mean survival time, dose: 200.0 mg/kg/injection, schedule: Q01DX009 (ip), vehicle: other) was 88 % of control.

Turning to `COc1cccc(/C=N/OCCNC(=O)c2ccc([N+](=O)[O-])cc2)c1`, the T/C reads like this: under setting [1], 97 % of control; under setting [2], 93 % of control; under setting [3], 101 % of control.

On to `Oc1ccc(Br)cc1/C=N/c1nc(-c2ccccc2)cs1.Oc1ccc(Br)cc1/C=N/c1nc(-c2ccccc2)cs1.[Zn]`, for which the T/C by setting is: (endpoint: mean survival time, dose: 25.0 mg/kg/injection, schedule: Q01DX001 (ip), vehicle: saline) 100 % of control; (endpoint: mean survival time, dose: 50.0 mg/kg/injection, schedule: Q01DX001 (ip), vehicle: saline) 100 % of control; (endpoint: mean survival time, dose: 100.0 mg/kg/injection, schedule: Q01DX001 (ip), vehicle: saline) 100 % of control.

Regarding `O=C(O)c1ccccc1SCCO`, the T/C is, setting by setting: (endpoint: mean survival time, dose: 100.0 mg/kg/injection, schedule: Q01DX001 (ip), vehicle: Klucel (hydroxypropylcellulose) (HPC)) 93 % of control; (endpoint: mean survival time, dose: 200.0 mg/kg/injection, schedule: Q01DX001 (ip), vehicle: Klucel (hydroxypropylcellulose) (HPC)) 102 % of control; (endpoint: mean survival time, dose: 400.0 mg/kg/injection, schedule: Q01DX001 (ip), vehicle: Klucel (hydroxypropylcellulose) (HPC)) 104 % of control.

As to `OCCN=Cc1ccccc1`, the T/C reads like this: (endpoint: mean survival time, dose: 25.0 mg/kg/injection, schedule: Q01DX009 (ip), vehicle: saline) 95 % of control; (endpoint: mean survival time, dose: 50.0 mg/kg/injection, schedule: Q01DX009 (ip), vehicle: saline) 92 % of control; (endpoint: mean survival time, dose: 100.0 mg/kg/injection, schedule: Q01DX009 (ip), vehicle: saline) 97 % of control; under setting [1], 106 % of control.

In the case of `CC(=O)Nc1nnc([N+](=O)[O-])s1`, the T/C under setting [1] is 95 % of control, the T/C under setting [2] is 91 % of control and the T/C under setting [3] was 94 % of control.

As for `CCOC(=O)C(CCC(O)C#N)(CC(C)=O)C(=O)OCC` (configuration not stated), the T/C (endpoint: mean survival time, dose: 75.0 mg/kg/injection, schedule: Q01DX001 (ip), vehicle: saline) was 100 % of control.

For the compound `Nc1nc[nH]c(=O)c1NC(=O)c1cccc([N+](=O)[O-])c1`, the T/C under setting [12] is 101 % of control and 111 % of control; the T/C under setting [8] was 96 % of control and 109 % of control; the T/C under setting [9] was 92 % of control and 104 % of control; the T/C under setting [10] is 114 % of control and 96 % of control.

As for `COC(=O)CNC(=O)C(Cc1ccc(OCc2ccccc2)cc1)NC(=O)OC(C)(C)C` (configuration not stated), the T/C under setting [1] was 91 % of control, the T/C under setting [2] is 91 % of control and the T/C under setting [3] is 95 % of control.

Consider `COc1ccccc1NC(=O)Oc1ccc(C(C)(C)C)cc1`, for which the T/C was 96 % of control under setting [8], 88 % of control under setting [9] and 100 % of control under setting [10].
